Assay results as given in patent US9801889B2, “Bicyclic heterocycles as FGFR4 inhibitors” (Incyte Corporation, priority 2015, dated 2017).

Columns and labels:
Conditions in all cases: IC50 ratio showing FGFR4 selectivity
FGFR3 = FGFR3 (Homo sapiens (Human), UniProt P22607); assay: FGFR Enzymatic Assay (FRET peptide phosphorylation), FGFR3
Description: (§1) The enzymes were purchased from Millipore or Invitrogen.
(§2) GraphPad prism3 was used to analyze the data. The IC50 values were derived by fitting the data to the equation for a sigmoidal dose-response with a variable slope. Y=Bottom+(Top-Bottom)/(1+10^((LogIC50-X)*HillSlope)) where X is the logarithm of concentration and Y is the response.

FGFR1 = FGFR1 (Homo sapiens (Human), UniProt P11362); assay: FGFR Enzymatic Assay (FRET peptide phosphorylation), FGFR1
Description: as §1, §2

FGFR2 = FGFR2 (Homo sapiens (Human), UniProt P21802); assay: FGFR Enzymatic Assay (FRET peptide phosphorylation), FGFR2
Description: as §1, §2

[1] = pre-incubated for 5 to 10 minutes

Sequence of FGFR2 (P21802 22-821): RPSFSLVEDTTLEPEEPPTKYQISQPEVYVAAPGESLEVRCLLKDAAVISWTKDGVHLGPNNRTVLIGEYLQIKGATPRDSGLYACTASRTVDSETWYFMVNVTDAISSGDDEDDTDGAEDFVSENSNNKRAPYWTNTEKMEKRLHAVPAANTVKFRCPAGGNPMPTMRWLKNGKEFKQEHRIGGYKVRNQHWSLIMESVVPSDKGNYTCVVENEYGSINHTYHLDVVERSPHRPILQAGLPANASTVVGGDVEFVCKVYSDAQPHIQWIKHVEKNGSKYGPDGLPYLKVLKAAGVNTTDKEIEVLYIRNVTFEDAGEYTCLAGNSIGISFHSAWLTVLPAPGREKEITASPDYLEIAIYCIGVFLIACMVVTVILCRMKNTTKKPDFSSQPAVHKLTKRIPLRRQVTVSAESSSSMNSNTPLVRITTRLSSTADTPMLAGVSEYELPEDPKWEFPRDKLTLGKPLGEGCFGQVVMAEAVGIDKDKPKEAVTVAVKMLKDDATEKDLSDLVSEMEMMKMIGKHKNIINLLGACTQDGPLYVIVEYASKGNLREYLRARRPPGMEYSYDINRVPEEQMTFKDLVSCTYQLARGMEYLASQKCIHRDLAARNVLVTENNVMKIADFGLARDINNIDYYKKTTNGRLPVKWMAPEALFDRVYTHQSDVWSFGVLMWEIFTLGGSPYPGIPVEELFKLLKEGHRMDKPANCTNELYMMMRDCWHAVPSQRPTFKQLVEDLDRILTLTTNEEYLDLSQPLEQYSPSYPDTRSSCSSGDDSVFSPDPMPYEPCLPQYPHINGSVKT
Sequence of FGFR1 (P11362 22-822): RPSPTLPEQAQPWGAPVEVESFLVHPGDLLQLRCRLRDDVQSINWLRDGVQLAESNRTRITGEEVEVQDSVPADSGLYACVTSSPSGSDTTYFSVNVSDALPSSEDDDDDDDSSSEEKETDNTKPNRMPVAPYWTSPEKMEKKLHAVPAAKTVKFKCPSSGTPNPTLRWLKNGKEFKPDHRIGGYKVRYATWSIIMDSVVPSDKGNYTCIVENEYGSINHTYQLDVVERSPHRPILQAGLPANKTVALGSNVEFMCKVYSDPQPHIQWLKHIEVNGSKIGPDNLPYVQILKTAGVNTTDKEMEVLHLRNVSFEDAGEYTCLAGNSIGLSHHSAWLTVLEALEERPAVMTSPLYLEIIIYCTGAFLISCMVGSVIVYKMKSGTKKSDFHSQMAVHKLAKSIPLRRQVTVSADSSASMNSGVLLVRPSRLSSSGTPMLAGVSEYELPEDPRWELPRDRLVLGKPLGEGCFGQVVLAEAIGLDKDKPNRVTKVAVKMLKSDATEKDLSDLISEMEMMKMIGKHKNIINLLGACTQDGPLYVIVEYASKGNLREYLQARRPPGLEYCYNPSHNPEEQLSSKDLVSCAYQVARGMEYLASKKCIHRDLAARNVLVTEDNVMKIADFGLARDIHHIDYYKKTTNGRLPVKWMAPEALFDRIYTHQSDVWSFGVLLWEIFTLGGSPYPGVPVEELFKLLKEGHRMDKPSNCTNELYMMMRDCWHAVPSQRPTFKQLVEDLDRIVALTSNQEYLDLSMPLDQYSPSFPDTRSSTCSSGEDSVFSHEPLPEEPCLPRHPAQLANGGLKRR
Sequence of FGFR3 (P22607 23-806): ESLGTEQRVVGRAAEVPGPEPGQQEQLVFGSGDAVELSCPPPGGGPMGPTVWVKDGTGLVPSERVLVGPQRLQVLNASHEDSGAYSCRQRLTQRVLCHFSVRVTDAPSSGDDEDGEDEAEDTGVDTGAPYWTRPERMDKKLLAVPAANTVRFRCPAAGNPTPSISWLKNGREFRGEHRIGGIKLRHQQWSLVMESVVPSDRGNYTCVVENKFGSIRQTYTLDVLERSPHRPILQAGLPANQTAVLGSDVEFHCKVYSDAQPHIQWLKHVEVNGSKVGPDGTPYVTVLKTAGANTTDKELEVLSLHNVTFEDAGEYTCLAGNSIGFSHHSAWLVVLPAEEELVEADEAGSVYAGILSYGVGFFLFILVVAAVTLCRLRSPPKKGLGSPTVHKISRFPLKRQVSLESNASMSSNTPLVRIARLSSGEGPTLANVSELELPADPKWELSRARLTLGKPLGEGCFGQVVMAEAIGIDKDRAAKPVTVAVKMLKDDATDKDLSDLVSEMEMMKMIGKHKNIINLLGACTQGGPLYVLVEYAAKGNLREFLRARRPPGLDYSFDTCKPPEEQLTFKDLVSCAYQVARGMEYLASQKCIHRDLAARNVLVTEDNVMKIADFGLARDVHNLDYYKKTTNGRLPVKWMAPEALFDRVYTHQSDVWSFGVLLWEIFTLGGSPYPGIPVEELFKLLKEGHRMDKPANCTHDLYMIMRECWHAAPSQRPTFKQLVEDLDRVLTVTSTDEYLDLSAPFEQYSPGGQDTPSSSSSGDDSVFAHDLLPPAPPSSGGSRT

Row | SMILES | FGFR3/FGFR4 (FGFR3; [1]) | FGFR3/FGFR4 (FGFR3; pre-incubated for 4 hours) | FGFR1/FGFR4 (FGFR1; [1]) | FGFR1/FGFR4 (FGFR1; pre-incubated for 4 hours) | FGFR2/FGFR4 (FGFR2; [1]) | FGFR2/FGFR4 (FGFR2; pre-incubated for 4 hours)
1 | C=CC(=O)Nc1ccc(C)c(-c2cc3c(cn2)CN(c2c(F)c(OC)cc(OC)c2F)C(=O)C32CC2)c1 [Example 2, N-(3-(2′-(2,6-difluoro-3,5-dimethoxyphenyl)-3′-oxo-2′,3′-dihydro-1′H-spiro[cyclopropane-1,4′-[2,7]naphthyridine]-6′-yl)-4-methylphenyl)acrylamide] | >100 | >100 | >100 | >100 | >100 | >100
2 | C=CC(=O)Nc1ccc(C#N)c(-c2cc3c(cn2)CN(c2c(F)c(OC)cc(OC)c2F)C(=O)C32CC2)c1 [Example 5, N-(4-cyano-3-(2′-(2,6-difluoro-3,5-dimethoxyphenyl)-3′-oxo-2′,3′-dihydro-1′H-spiro[cyclopropane-1,4′-[2,7]naphthyridine]-6′-yl)phenyl)acrylamide] | >100 | >100 | >100 | >100 | >100 | >100
3 | C=CC(=O)Nc1cc(-c2cc3c(cn2)CN(c2c(F)c(OC)cc(OC)c2F)C(=O)C32CC2)c(C)cc1F [Example 6, N-(5-(2′-(2,6-difluoro-3,5-dimethoxyphenyl)-3′-oxo-2′,3′-dihydro-1′H-spiro[cyclopropane-1,4′-[2,7]naphthyridine]-6′-yl)-2-fluoro-4-methylphenyl)acrylamide] | >100 | >100 | >100 | >100 | >100 | >100
4 | C=CC(=O)Nc1cnc(C)c(-c2cc3c(cn2)CN(c2c(F)c(OC)cc(OC)c2F)C(=O)C32CC2)c1 [Example 7, N-(5-(2′-(2,6-difluoro-3,5-dimethoxyphenyl)-3′-oxo-2′,3′-dihydro-1′H-spiro[cyclopropane-1,4′-[2,7]naphthyridine]-6′-yl)-6-methylpyridin-3-yl)acrylamide] | >100 | >100 | >100 | >100 | >100 | >100
5 | C=CC(=O)N1CCCC(c2cc3c(cn2)CN(c2c(F)c(OC)cc(OC)c2F)C(=O)C32CC2)C1 (stereo not drawn) [Example 8, 6′-(1-acryloylpiperidin-3-yl)-2′-(2,6-difluoro-3,5-dimethoxyphenyl)-1′H-spiro[cyclopropane-1,4′-[2,7]naphthyridin]-3′(2′H)-one] | >1 | >2 | >5 | >10 | >1 | >2
6 | C=CC(=O)Nc1cc(-c2cc3c(cn2)CN(c2c(F)c(OC)cc(OC)c2F)C(=O)C32CC2)cc(N2CCOCC2)c1 [Example 10, N-{3-[2′-(2,6-difluoro-3,5-dimethoxyphenyl)-3′-oxo-2′,3′-dihydro-1′H-spiro[cyclopropane-1,4′-[2,7]naphthyridin]-6′-yl]-5-morpholin-4-ylphenyl}acrylamide] | >100 | >100 | >100 | >100 | >100 | >100
7 | C=CC(=O)Nc1cc(CN2CCOCC2)cc(-c2cc3c(cn2)CN(c2c(F)c(OC)cc(OC)c2F)C(=O)C32CC2)c1 [Example 11, N-[3-[2′-(2,6-difluoro-3,5-dimethoxyphenyl)-3′-oxo-2′,3′-dihydro-1′H-spiro[cyclopropane-1,4′-[2,7]naphthyridin]-6′-yl]-5-(morpholin-4-ylmethyl)phenyl]acrylamide] | >100 | >100 | >100 | >100 | >100 | >100
8 | C=CC(=O)Nc1cc(-c2cc3c(cn2)CN(c2c(F)c(OC)cc(OC)c2F)C(=O)C32CC2)ccc1CN1CCOCC1 [Example 12, N-(5-(2′-(2,6-difluoro-3,5-dimethoxyphenyl)-3′-oxo-2′,3′-dihydro-1′H-spiro[cyclopropane-1,4′-[2,7]naphthyridine]-6′-yl)-2-(morpholinomethyl)phenyl)acrylamide] | >1 | >10 | >10 | >100 | >1 | >25
9 | C=CC(=O)Nc1cn[nH]c1-c1cc2c(cn1)CN(c1c(F)c(OC)cc(OC)c1F)C(=O)C21CC1 [Example 14, N-(5-(2′-(2,6-difluoro-3,5-dimethoxyphenyl)-3′-oxo-2′,3′-dihydro-1′H-spiro[cyclopropane-1,4′-[2,7]naphthyridine]-6′-yl)-1H-pyrazol-4-yl)acrylamide] | – | >100 | – | >100 | – | >100
10 | C=CC(=O)Nc1cnn(CCOC)c1-c1cc2c(cn1)CN(c1c(F)c(OC)cc(OC)c1F)C(=O)C21CC1 [Example 15, N-(5-(2′-(2,6-difluoro-3,5-dimethoxyphenyl)-3′-oxo-2′,3′-dihydro-1′H-spiro[cyclopropane-1,4′-[2,7]naphthyridine]-6′-yl)-1-(2-methoxyethyl)-1H-pyrazol-4-yl)acrylamide] | – | >100 | – | >100 | – | >100
11 | C=CC(=O)Nc1cnn(CCOCC)c1-c1cc2c(cn1)CN(c1c(F)c(OC)cc(OC)c1F)C(=O)C21CC1 [Example 16, N-(5-(2′-(2,6-difluoro-3,5-dimethoxyphenyl)-3′-oxo-2′,3′-dihydro-1′H-spiro[cyclopropane-1,4′-[2,7]naphthyridine]-6′-yl)-1-(2-ethoxyethyl)-1H-pyrazol-4-yl)acrylamide] | – | >100 | – | >100 | – | >100
12 | C=CC(=O)Nc1cnn(CCO)c1-c1cc2c(cn1)CN(c1c(F)c(OC)cc(OC)c1F)C(=O)C21CC1 [Example 17, N-(5-(2′-(2,6-difluoro-3,5-dimethoxyphenyl)-3′-oxo-2′,3′-dihydro-1′H-spiro[cyclopropane-1,4′-[2,7]naphthyridine]-6′-yl)-1-(2-hydroxyethyl)-1H-pyrazol-4-yl)acrylamide] | – | >100 | – | >100 | – | >100
13 | C=CC(=O)Nc1cnn(C2CCOCC2)c1-c1cc2c(cn1)CN(c1c(F)c(OC)cc(OC)c1F)C(=O)C21CC1 [Example 18, N-(5-(2′-(2,6-difluoro-3,5-dimethoxyphenyl)-3′-oxo-2′,3′-dihydro-1′H-spiro[cyclopropane-1,4′-[2,7]naphthyridine]-6′-yl)-1-(tetrahydro-2H-pyran-4-yl)-1H-pyrazol-4-yl)acrylamide] | – | >100 | – | >100 | – | >50
14 | C=CC(=O)Nc1cnn(CCN2CCOCC2)c1-c1cc2c(cn1)CN(c1c(F)c(OC)cc(OC)c1F)C(=O)C21CC1 [Example 19, N-(5-(2′-(2,6-difluoro-3,5-dimethoxyphenyl)-3′-oxo-2′,3′-dihydro-1′H-spiro[cyclopropane-1,4′-[2,7]naphthyridine]-6′-yl)-1-(2-morpholinoethyl)-1H-pyrazol-4-yl)acrylamide] | – | >100 | – | >100 | – | >100
15 | C=CC(=O)Nc1cnn(Cc2ccncc2)c1-c1cc2c(cn1)CN(c1c(F)c(OC)cc(OC)c1F)C(=O)C21CC1 [Example 21, N-(5-(2′-(2,6-difluoro-3,5-dimethoxyphenyl)-3′-oxo-2′,3′-dihydro-1′H-spiro[cyclopropane-1,4′-[2,7]naphthyridine]-6′-yl)-1-(pyridin-4-ylmethyl)-1H-pyrazol-4-yl)acrylamide] | – | >100 | – | >100 | – | >50
16 | C=CC(=O)Nc1cnn(Cc2cccnc2)c1-c1cc2c(cn1)CN(c1c(F)c(OC)cc(OC)c1F)C(=O)C21CC1 [Example 22, N-(5-(2′-(2,6-difluoro-3,5-dimethoxyphenyl)-3′-oxo-2′,3′-dihydro-1′H-spiro[cyclopropane-1,4′-[2,7]naphthyridine]-6′-yl)-1-(pyridin-3-ylmethyl)-1H-pyrazol-4-yl)acrylamide] | – | >100 | – | >100 | – | >100
17 | C=CC(=O)Nc1cnn(Cc2ncn(C)n2)c1-c1cc2c(cn1)CN(c1c(F)c(OC)cc(OC)c1F)C(=O)C21CC1 [Example 23, N-(5-(2′-(2,6-difluoro-3,5-dimethoxyphenyl)-3′-oxo-2′,3′-dihydro-1′H-spiro[cyclopropane-1,4′-[2,7]naphthyridine]-6′-yl)-1-((1-methyl-1H-1,2,4-triazol-3-yl)methyl)-1H-pyrazol-4-yl)acrylamide] | – | >100 | – | >100 | – | >100
18 | C=CC(=O)Nc1cnn(CC2CCOCC2)c1-c1cc2c(cn1)CN(c1c(F)c(OC)cc(OC)c1F)C(=O)C21CC1 [Example 24, N-(5-(2′-(2,6-difluoro-3,5-dimethoxyphenyl)-3′-oxo-2′,3′-dihydro-1′H-spiro[cyclopropane-1,4′-[2,7]naphthyridine]-6′-yl)-1-((tetrahydro-2H-pyran-4-yl)methyl)-1H-pyrazol-4-yl)acrylamide] | – | >100 | – | >100 | – | >100
19 | C=CC(=O)Nc1cnn(Cc2ccon2)c1-c1cc2c(cn1)CN(c1c(F)c(OC)cc(OC)c1F)C(=O)C21CC1 [Example 25, N-(5-(2′-(2,6-difluoro-3,5-dimethoxyphenyl)-3′-oxo-2′,3′-dihydro-1′H-spiro[cyclopropane-1,4′-[2,7]naphthyridine]-6′-yl)-1-(isoxazol-3-ylmethyl)-1H-pyrazol-4-yl)acrylamide] | – | >100 | – | >100 | – | >100
